The term melting point denotes the temperature of the solid-liquid transition. Usually IC50 stands for the concentration needed to halve the response being measured.

Where only a bound is given, the exact number is not on record here.

Series [1] has as its target T1, aromatase activity in JAR choriocarcinoma placental cells (Homo sapiens, UniProt P11511).
T1 construct: JAR choriocarcinoma placental cells (which produce aromatase expression from promoter I.1 mediated by protein kinase C); host or cells: JAR
T1 sequence (P11511 1-503): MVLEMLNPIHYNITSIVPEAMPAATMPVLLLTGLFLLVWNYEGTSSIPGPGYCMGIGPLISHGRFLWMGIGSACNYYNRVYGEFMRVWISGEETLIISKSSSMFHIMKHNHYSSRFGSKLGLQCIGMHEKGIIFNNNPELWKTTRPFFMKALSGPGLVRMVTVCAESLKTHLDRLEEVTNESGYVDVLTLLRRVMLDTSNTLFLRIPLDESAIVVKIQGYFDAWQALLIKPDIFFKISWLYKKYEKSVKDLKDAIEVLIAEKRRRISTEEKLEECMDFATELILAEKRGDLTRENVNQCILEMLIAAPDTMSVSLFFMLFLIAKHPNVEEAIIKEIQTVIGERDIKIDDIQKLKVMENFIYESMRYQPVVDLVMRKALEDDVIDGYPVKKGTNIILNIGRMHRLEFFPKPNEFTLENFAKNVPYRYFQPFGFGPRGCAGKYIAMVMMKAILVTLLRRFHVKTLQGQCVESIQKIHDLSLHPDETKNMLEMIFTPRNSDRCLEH
As to the kind of experiment: Tritiated water-release assay in JAR cells. To be noted: for inhibition at 15 µM: 24 h, 15 μM (FIG. 11), read-out: decrease of aromatase activity in JAR cells. It is filed as cell-based. How it is done:
(§1) Cell Culture. AR and SK-BR-3 cells were obtained from ATCC (Rockville, Md.). SK-BR-3 cells were maintained in phenol red-free custom media (MEM, Earle's salts, 1.5× amino acids, 2× non-essential amino acids, L-glutamine, 1.5× vitamins, Gibco BRL) supplemented with 10% fetal bovine serum (FBS), 2 mM L-glutamine and 20 mg/L gentamycin. JAR cells were maintained in RPMI 1640 medium with 2 mM L-glutamine adjusted to contain 1.5 g/L sodium bicarbonate, 4.5 g/L glucose, 10 mM HEPES, and 1.0 mM sodium pyruvate, 90%; FBS, 10%. Fetal bovine serum was heat inactivated for 30 min in a 56° C. water bath before use. Cell cultures were grown at 37° C., in a humidified atmosphere of 5% CO2 in a Hereaus CO2 incubator. For all experiments, cells were plated in 6 well plates and grown to subconfluency. Before treatment, the media was changed to a defined one containing DMEM/F12 media (Sigma) with 1.0 mg/mL human albumin (OSU Hospital Pharmacy), 5.0 mg/L human transferin and 5.0 mg/L bovine insulin.
(§2) Tritiated water-release assay in JAR and SK-BR-3 cell lines. Measurement of aromatase enzyme activity was based on the tritium water release assay. Cells in six well plates were treated with 0.1% DMSO (control), and inhibitors at the indicated concentrations. After 24 hours, the cells were incubated 3 hours (SK-BR-3 cells) or 1 hour (JAR cells) with fresh media along with 100 nM [1β-^3H]-androst-4-ene-3,17-dione (1 μCi). Subsequently, the reaction mixture was removed, and proteins were precipitated using 10% trichloroacetic acid at 42° C. for 20 min. After a brief centrifugation, the media was extracted three times with an equal amount of chloroform to remove remaining substrate and further treated with dextran-treated charcoal. After centrifugation, a 250-μl aliquot containing the product was counted in 5 ml of liquid scintillation mixture. Results were corrected for blanks and for the cell contents of culture flasks, and results were expressed as picomoles of ^3H2O formed per hour incubation time per million live cells (pmol/h/10^6 cells). To determine the amount of cells in each flask, the cells were lysed and analyzed using the diphenylamine DNA assay adapted to a 96-well plate. IC50 sigmoidal dose-response data were analyzed with Microsoft Excel and the Graphpad Prism (Version 3.0) program.
(§3) Diphenylamine DNA Assay To determine the amount of viable cells in each flask, the cells were lysed with 0.5N NaOH aqueous solution and analyzed using the diphenylamine DNA assay adapted to a 96-well plate. DNA standards (0-30 μg) were prepared using double-stranded DNA reconstituted in PBS and added in triplicates directly to the wells. A uniform cell suspension was prepared from the 6 well plate in 300 μl 0.5N NaOH aqueous solution, and 60 μl of the unknown samples were added in triplicates to separate wells. A solution of 0.16% acetaldehyde in water was prepared and mixed at a 1:5 ratio with perchloric acid (20% vol/vol). This solution (60 μl) was added to each well along with 100 μl of a 4% diphenylamine solution in glacial acetic acid. The plates were incubated at 37° C. for 24 hours. After centrifugation, 100 μl supernatant of each well was transferred to a new 96 well plate, and the OD595 was measured using a microplater reader. The DNA concentration was determined by extrapolation to the standard curve and the amount of cells/well was calculated using the equation: 1 cell≈7 pg DNA.

Series [2] relates to aromatase activity in SK-BR-3 breast cancer cells. As to the kind of experiment: Tritiated water-release assay in SK-BR-3 cells (additional compounds). The format is cell-based, human. Here is the method:
as §1, with “JAR cells were maintained in RPMI 1640 medium with 2 mM L-glutamine adjusted to contain 1.5 g/L sodium bicarbonate, 4.5 g/L glucose, 10 mM HEPES, and 1.0 mM sodium pyruvate, 90%; FBS, 10%.” left out
as §2
as §3, with “A solution of 0.16% acetaldehyde in water was prepared and mixed at a 1:5 ratio with perchloric acid (20% vol/vol).” left out

In series [3] the test system is PGE2 production in MDA-MB-231 cells. Nature of the series: Enzyme immunoassay of PGE2 in MDA-MB-231 cells (COX-2 inhibitory activity). The format is cell-based, human. The following applies: 25 μM, 24 h (FIG. 4). Here is the method: Enzyme Immunoassay of PGE2 in MDA-MB-231 Cells. MDA-MB-231 cells were obtained from ATCC (Rockville, Md.). Cell cultures were maintained in phenol red-free custom media (MEM, Earle's salts, 1.5× amino acids, 2× nonessential amino acids, L-glutamine, 1.5× vitamins, Gibco BRL) supplemented with 10% fetal bovine serum (FBS), 2 mM L-glutamine and 20 mg/L gentamycin. To study PGE2 synthesis in cell culture media, experiments were performed in […] Petri dishes. An aliquot of MDA-MB-231 cells (15×10^4 cells) were added to each dish and then incubated overnight to allow the cells to adhere to the dish. After that, cells were serum starved in defined media for 24 h. This step was followed by replacement of media with fresh media containing either vehicle (DMSO) or the indicated concentration of agents. After 24 h incubation at 37° C. the media were collected and the amount of PGE2 was determined by ELISA (Cayman Chemical) according to the protocol provided by the manufacturer. PGE2 concentration was normalized to total protein. Total proteins were extracted from adhered cells by 30 min treatment with 0.5 M NaOH at room temperature and shaking. Protein concentrations in these extracts were determined using a protein assay method (Bio-Rad Laboratories, Inc., Hercules, Calif.).

The subject of series [4] is aromatase activity in SK-BR-3 breast cancer cells. As to the kind of experiment: Aromatase tritiated water-release assay in SK-BR-3 cell lines (first compound set). The following applies: SK-BR-3 cells, 24 h treatment; five concentrations, each in triplicate; read-out: IC50 (μM), suppression of aromatase activity in SK-BR-3 breast cancer cells. The format is cell-based, human. Here is the method: Aromatase Tritiated Water-Release Assay in SK-BR-3 Cell Lines. SK-BR-3 cells were obtained from ATCC (Rockville, Md.). Cell cultures were maintained in phenol red-free custom media (MEM, Earle's salts, 1.5× amino acids, 2× nonessential amino acids, L-glutamine, 1.5× vitamins, Gibco BRL) supplemented with 10% fetal bovine serum (FBS), 2 mM L-glutamine, and 20 mg/L gentamycin. Measurement of aromatase enzyme activity was based on the tritium water release assay. 24 Cells in 100 mm Petri dish were treated with 0.1% DMSO (control), and inhibitors at the indicated concentrations. After 24 h, the media was changed and the cells were incubated with 100 nM [1â-3H]-androst-4-ene-3,17-dione ([…]) for 3 h. Subsequently, the reaction mixture was removed, and proteins were precipitated using 10% trichloroacetic acid at 42° C. for 20 min. After a brief centrifugation, the media was extracted three times with an equal amount of chloroform to extract unused substrate and further dextran-treated charcoal. After centrifugation, a 250-μL aliquot containing the product was counted in 5 mL of liquid scintillation mixture. Results were corrected for blanks and for the cell contents of culture flasks, and results were expressed as picomoles of 3H2O formed per hour incubation time per million live cells (pmol/h/10^6 cells). To determine the amount of cells in each flask, the cells were trypsinized and analyzed using the diphenylamine DNA assay adapted to a 96-well plate. (Natarajan N.; Shambaugh, G. E., 3rd; Elseth K. M.; Haines G. K.; Radosevich J. A. Adaptation of the diphenylamine (DPA) assay to a 96-well plate tissue culture format and comparison with the MTT assay. Biotechniques 1994, 17, 166-171; incorporated herein by reference). IC50 sigmoidal dose-response data were analyzed with Microsoft Excel and the Graphpad Prism (Version 3.0) program.

In turn, `CN(c1ccc([N+](=O)[O-])cc1OCc1cccc2ccccc12)S(C)(=O)=O` [Compound 38c, N-methyl-N-[2-(α-naphthylmethoxy) 4-nitrophenyl]methanesulfonamide] had a melting point of 163 to 165 °C. Further, the inhibition at 15 µM in series [1] is less than 50%.
As to `CS(=O)(=O)Nc1ccc([N+](=O)[O-])cc1Oc1ccccc1` [Nimesulide, N-(2-phenoxy-4-nitrophenyl)-methanesulfonamide, reference compound], in series [2] (dose-response (FIG. 13), read-out: IC50 (μM), suppression of aromatase activity in SK-BR-3 breast cancer cells), the IC50 was 27 µM.
For `CS(=O)(=O)Nc1ccc([N+](=O)[O-])cc1OCc1cccc2ccccc12` [Compound 38b, N-[2-(α-naphthylmethoxy) 4-nitrophenyl]methanesulfonamide], the melting point lay in the range of 193 to 195 °C. The “aromatase suppression activity in JAR cells (in words)” value in series [1] (15 μM) was “inhibited aromatase activity in both JAR cells and SK-BR-3 cells”. In series [1], the inhibition at 15 µM is less than 50%. Further, the “decrease of aromatase activity in SK-BR-3 cells (in words)” value in series [2] (2.5 μM) is “inhibited aromatase activity in both JAR cells and SK-BR-3 cells”.
Consider `CC1CCCCC1Oc1cc([N+](=O)[O-])ccc1N(C)S(C)(=O)=O` (centres unmarked) [Compound 20, N-Methyl-N-(2-methylcyclohexyloxy-4-nitrophenyl)methanesulfonamide], for which the “PGE2 production (COX-2 inhibitory activity)” value in series [3] is “did not show any inhibitory activity”. Also, the IC50 in series [4] is 0.96 µM.
`CN(c1ccc([N+](=O)[O-])cc1OC1CCCC1)S(C)(=O)=O` [Compound 21, N-Methyl-N-(2-cyclopentyloxy-4-nitrophenyl)methanesulfonamide] gave a melting point of 102 to 104 °C. The “PGE2 production (COX-2 inhibitory activity)” value in series [3] is recorded as “did not show any inhibitory activity”. Besides, the IC50 in series [4] worked out at 0.44 µM.
The compound `CS(=O)(=O)Nc1ccc([N+](=O)[O-])cc1OC1CCCC1` [Compound 12, N-(2-Cyclopentyloxy-4-nitrophenyl)methanesulfonamide] registered a melting point of 139 to 140 °C. For the same compound, the “PGE2 production (COX-2 inhibitory activity)” value in series [3] is “significantly decrease in PGE2 production”. The IC50 in series [4] was determined as 0.87 µM.
Turning to `CC1CCCCC1Oc1cc([N+](=O)[O-])ccc1NS(C)(=O)=O` (centres unmarked) [Compound 11, N-(2-Methylcyclohexyloxy-4-nitrophenyl)methanesulfonamide], the “PGE2 production (COX-2 inhibitory activity)” value in series [3] is recorded as “did not show any COX-2 inhibitory activity”. In addition, in series [4], the IC50 came to 1.21 µM.
